How the values were obtained:
Assay type in all cases: in vivo
[1] = system: Brassica napus (Oilseed Rape); experiment: Pre-emergence, damage of crop plants
From the text: (§1) Seeds of monocotyledonous and dicotyledonous weed plants and crop plants are laid out in wood-fiber pots in sandy loam and covered with soil. The compounds according to the invention, formulated in the form of wettable powders (WP) or as emulsion concentrates (EC), are then applied to the surface of the soil cover in the form of an aqueous suspension or emulsion at a water application rate equating to 600 to 800 l/ha, with addition of 0.2% wetting agent. After the treatment, the pots are placed in a greenhouse and kept under good growth conditions for the test plants. The damage to the test plants is assessed visually after a test period of 3 weeks by comparison with untreated controls (herbicidal activity in percent (%): 100% activity=the plants have died, 0% activity=like control plants). Here, for example, compounds No. 1-163, 1-171, 1-172, 1-283, 1-284, 1-294, 1-295, 1-334, 10-001 and 11-343, at an application rate of 320 g/ha, have an activity of at least 80% against Veronica persica.
(§2) In the tables below, the properties of the compounds according to the invention are compared to those of the structurally most similar compounds known from WO 2012/028579 A1. These tests were carried out by the pre- and post-emergence method under the conditions mentioned under item 1 and item 2. Here, the herbicidal activity against various harmful plants and the damage of some important crop plants were compared at different dosages.

Oryza sativa (Rice) [2] = experiment: Pre-emergence, damage of crop plants
From the text: as §1, §2

[3] = system: Triticum aestivum (Wheat); experiment: Pre-emergence, damage of crop plants
From the text: as §1, §2

[4] = system: Brassica napus (Oilseed Rape); experiment: Post-emergence, damage of crop plants
Protocol: (§3) Seeds of monocotyledonous and dicotyledonous weed plants and crop plants are laid out in wood fiber pots in sandy loam, covered with soil and cultivated in a greenhouse under good growth conditions. 2 to 3 weeks after sowing, the test plants are treated at the one-leaf stage. The compounds according to the invention, formulated in the form of wettable powders (WP) or as emulsion concentrates (EC), are then sprayed onto the green parts of the plants in the form of an aqueous suspension or emulsion at a water application rate equating to 600 to 800 l/ha, with addition of 0.2% wetting agent. After the test plants have been left to stand in the greenhouse under optimal growth conditions for about 3 weeks, the action of the preparations is assessed visually in comparison to untreated controls (herbicidal action in percent (%): 100% activity=the plants have died, 0% activity=like control plants). Here, for example, compounds No. 1-163, 1-171, 1-172, 1-173, 1-254, 1-283, 1-284, 1-293, 1-294 and 1-334, at an application rate of 80 g/ha, have an activity of at least 80% against Abutilon theophrasti and Amaranthus retroflexus.
as §2

Oryza sativa (Rice) [5] = experiment: Post-emergence, damage of crop plants
Protocol: as §3, §2

[6] = system: Triticum aestivum (Wheat); experiment: Post-emergence, damage of crop plants
Protocol: as §3, §2

Lolium multiflorum [7] = experiment: Post-emergence herbicidal action
Protocol: as §3, §2

Setaria viridis = experiment: Post-emergence herbicidal action; settings: Dosage 20/ha (Table R)
Protocol: as §3, §2

Zea mays (Corn) [8] = experiment: Pre-emergence, damage of crop plants; settings: Dosage 320/ha (Table G)
From the text: as §1, §2

Zea mays (Corn) [9] = experiment: Post-emergence, damage of crop plants
Protocol: as §3, §2

Pharbitis purpureum = experiment: Post-emergence herbicidal action; settings: Dosage 20/ha (Table S)
Protocol: as §3, §2

Lolium multiflorum [10] = experiment: Pre-emergence herbicidal action; settings: Dosage 320/ha (Table F)
From the text: as §1, §2

Polygonum convolvulus = experiment: Pre-emergence herbicidal action; settings: Dosage 320/ha (Table F)
From the text: as §1, §2

Cyperus serotinus = experiment: Post-emergence herbicidal action; settings: Dosage 80/ha (Table Q)
Protocol: as §3, §2

Avena fatua = experiment: Pre-emergence herbicidal action
From the text: as §1, §2

CSc1c(C(F)(F)F)ccc(C(=O)Nc2nnnn2C)c1C [WO 2012/028579, No. 4-135]
damage of crop plants BRSNW ([1]; Dosage 80/ha (Table A)): 80% | damage of crop plants ORYZA (Oryza sativa (Rice) [2]; Dosage 80/ha (Table A)): 60% | damage of crop plants TRZAS ([3]; Dosage 80/ha (Table A)): 60% | damage of crop plants BRSNW ([4]; Dosage 80/ha (Table M)): 100% | damage of crop plants ORYZA (Oryza sativa (Rice) [5]; Dosage 80/ha (Table M)): 100% | damage of crop plants TRZAS ([6]; Dosage 80/ha (Table M)): 100%

CSc1c(C(F)(F)F)ccc(C(=O)Nc2ncco2)c1C [1-171]
damage of crop plants BRSNW ([1]; Dosage 80/ha (Table A)): 30% | damage of crop plants BRSNW ([1]; Dosage 80/ha (Table B)): 30% | damage of crop plants ORYZA (Oryza sativa (Rice) [2]; Dosage 80/ha (Table A)): 0% | damage of crop plants ORYZA (Oryza sativa (Rice) [2]; Dosage 80/ha (Table B)): 0% | damage of crop plants TRZAS ([3]; Dosage 80/ha (Table A)): 0% | damage of crop plants TRZAS ([3]; Dosage 80/ha (Table B)): 0% | damage of crop plants BRSNW ([4]; Dosage 80/ha (Table M)): 0% | damage of crop plants BRSNW ([4]; Dosage 80/ha (Table N)): 0% | damage of crop plants ORYZA (Oryza sativa (Rice) [5]; Dosage 80/ha (Table M)): 0% | damage of crop plants ORYZA (Oryza sativa (Rice) [5]; Dosage 80/ha (Table N)): 0% | damage of crop plants TRZAS ([6]; Dosage 80/ha (Table M)): 0% | damage of crop plants TRZAS ([6]; Dosage 80/ha (Table N)): 0%

CCn1nnnc1NC(=O)c1ccc(S(C)(=O)=O)c([S+](C)[O-])c1Cl (centres unmarked) [WO 2012/028579, No. 5-294]
herbicidal activity against harmful plants LOLMU (Lolium multiflorum [7]; Dosage 20/ha (Table R)): 10% | herbicidal activity against harmful plants SETVI (Setaria viridis): 0%

C[S+]([O-])c1c(C(F)(F)F)ccc(C(=O)Nc2ncco2)c1Cl (centres unmarked) [1-294]
damage of crop plants BRSNW ([1]; Dosage 320/ha (Table G)): 20% | damage of crop plants ORYZA (Oryza sativa (Rice) [2]; Dosage 320/ha (Table G)): 30% | damage of crop plants ZEAMX (Zea mays (Corn) [8]): 0% | damage of crop plants, Crop plants ORYZA (Oryza sativa (Rice) [5]; Dosage 20/ha (Table S)): 0% | damage of crop plants, Crop plants TRZAS ([6]; Dosage 20/ha (Table S)): 0% | damage of crop plants, Crop plants ZEAMX (Zea mays (Corn) [9]; Dosage 20/ha (Table S)): 0% | herbicidal activity, Harmful plant PHBPU (Pharbitis purpureum): 70%

Cn1nnnc1NC(=O)c1ccc(C(F)(F)F)nc1Cl [WO 2012/028579, No. 8-10]
Damage of ORYZA (Oryza sativa (Rice) [2]; 20 g/ha (Table I)): 50% | Damage of ORYZA (Oryza sativa (Rice) [2]; 80 g/ha (Table I)): 90% | damage of crop plants ORYZA (Oryza sativa (Rice) [5]; Dosage 80 g/ha (Table U)): 90% | damage of crop plants ZEAMX (Zea mays (Corn) [9]; Dosage 80 g/ha (Table U)): 90%

Cn1nnnc1NC(=O)c1ccc(S(C)(=O)=O)c([S+](C)[O-])c1Cl (centres unmarked) [WO 2012/028579, No. 4-293]
herbicidal activity against harmful plants LOLMU (Lolium multiflorum [10]): 20% | herbicidal activity against harmful plants POLCO (Polygonum convolvulus): 20% | damage of crop plants, Crop plant ORYZA (Oryza sativa (Rice) [5]; Dosage 80/ha (Table Q)): 40% | herbicidal activity, Harmful plants CYPES (Cyperus serotinus): 40% | herbicidal activity, Harmful plants LOLMU (Lolium multiflorum [7]; Dosage 80/ha (Table Q)): 40%

CCS(=O)(=O)c1ccc(C(=O)Nc2ncnn2C)c(Cl)c1C1=NOC(CC#N)C1 (centres unmarked) [WO 2012/028579, No. 1-267]
Herbicidal activity against AVEFA (Avena fatua; 80 g/ha (Table J)): 0% | Herbicidal activity against AVEFA (Avena fatua; 320 g/ha (Table J)): 0% | Damage of BRSNW ([4]; 20 g/ha (Table V)): 90% | Damage of BRSNW ([4]; 80 g/ha (Table V)): 90%

CCS(=O)(=O)c1ccc(C(=O)Nc2nnnn2-c2ccccc2)c(Cl)c1C1=NOC(CC#N)C1 (centres unmarked) [WO 2012/028579, No. 6-268]
Herbicidal activity against AVEFA (Avena fatua; 20 g/ha (Table L)): 0% | Herbicidal activity against AVEFA (Avena fatua; 80 g/ha (Table L)): 0% | Damage of BRSNW ([4]; 20 g/ha (Table X)): 20% | Damage of BRSNW ([4]; 80 g/ha (Table X)): 60%

Reference: US9758494B2, “N-(oxazol-2-yl)-aryl-carboxylic acid amides and use thereof as herbicides” (BAYER CROPSCIENCE AG, priority 2012, dated 2017)
